Measured values as given in ChEMBL document CHEMBL1201862, “PubChem BioAssay data set” (2004).
Blank lines part the entries; values can stand above or below the molecule they belong to. The source made the active and inactive calls.

Experiments:
[1] = target: T1, Protein phosphatase methylesterase 1 (Homo sapiens, UniProt Q9Y570); experiment: PME-1 inhibitor potency by in-gel ABPP, dose response, selectivity assay for PME-1 inhibitor project, cell lysate, mouse brain cytosol, FP-rhodamine, panel member PME-1 Assay Panel member description: Inhibition of endogenously expressed PME-1 (AID 2366)
[2] = target: T1, Protein phosphatase methylesterase 1; experiment: Late stage results from the probe development effort to identify inhibitors of the protein methylesterase PME-1: Gel-based Activity-Based Protein Profiling (ABPP) IC50: Purified enzyme.; type: functional
BJ [3] = experiment: cytotoxicity toward BJ-TERT fibroblasts, dose response, cell-based, RAS-independent, luminescence (AID 1933); type: functional; details: Homo sapiens
BJ [4] = experiment: cells; type: functional, cell-based; details: Homo sapiens
[5] = target: T2, Voltage-dependent T-type calcium channel subunit alpha-1H (Homo sapiens, UniProt O95180); experiment: Inhibitors of T-Type Calcium Channels. [Related pubchem assays (depositor defined):AID449739, AID463087, AID489005, AID493041, AID504579, AID504584, AID504619, AID504628]; type: functional
[6] = cytotoxicity toward DRD oncogenic fibroblasts, dose response, cell-based, non-viral oncogenic, luminescence (AID 1934); type: functional; details: Homo sapiens
[7] = target: T2, Voltage-dependent T-type calcium channel subunit alpha-1H; type: functional
BJ [8] = experiment: cytotoxicity toward BJ-TERT-LT-ST fibroblasts, dose response, cell-based, RAS-independent, luminescence (AID 1935); type: functional; details: Homo sapiens;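 note: BJ fibroblasts immortalized with TERT plus LT and ST oncogenes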
Salmon testes DNA = experiment: DNA intercalators displacing acridine orange, dose response, artefact control for KSHV LANA DNA-binding inhibitor project, biochemical, fluorescence polarization, cherry-picked samples, set 2 (AID 504727); set-up: species or system Salmonidae
[9] = target: FAD-linked sulfhydryl oxidase ALR (Homo sapiens, UniProt P55789); experiment: inhibitors of human ALR sulfhydryl oxidase, dose response, biochemical, H2O2 detection, luminescence, cherry-pick (AID 493248)
[10] = inhibitors of intracellular T. cruzi replication, confirmation, NIH3T3 host cells, beta-gal luminescence (AID 2044); type: functional, cell-based;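 note: intracellular parasites grown in NIH/3T3 mouse fibroblasts as host cells; luminescent beta-galactosidase reporter signal from transgenic T. cruzi replicating inside host cells; inhibitors lower the luminescence signal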
[11] = cytotoxicity toward NIH3T3 fibroblasts, dose response, counter-screen, cell-based, ATP luminescence, mouse fibroblasts (AID 2010); type: functional;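 note: cells exposed to compound for about 90 hours before reading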
HeLa = experiment: HeLa cell cytotoxicity, dose response, cytotoxicity control, 24 h, cherry-picked samples (AID 504726); type: functional, cell-based; details: Homo sapiens;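 note: potency for cytotoxicity as loss of luminescence signal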
[12] = target: Envelope glycoprotein gp160 (Human immunodeficiency virus 1, UniProt Q6QLK5); experiment: inhibitors of HIV fusion peptide binding, primary screen, biochemical, uHTS, fluorescence dequenching (AID 1986)
[13] = target: Melanin-concentrating hormone receptor 1 (Homo sapiens, UniProt Q99705); experiment: Late-stage fluorescence-based counterscreen for antagonists of the G-protein coupled receptor 7 (GPR7): cell-based dose response assay to identify antagonists of the melanin-concentrating hormone receptor 1 (MCHR1). [Related pubchem assays (depositor defined):AID1861, AID1880, AID1952, AID2148, AID2251, AID2257, AID485339]; type: functional;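 note: stimulated with 30 nM MCH peptide agonist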
[14] = target: T3, Neuropeptides B/W receptor type 1 (Homo sapiens, UniProt P48145); experiment: GPR7 antagonist potency, late-stage follow-up, cell-based, fluorescence, dose response (AID 463251); type: functional
T3 sequence (P48145 whole entry): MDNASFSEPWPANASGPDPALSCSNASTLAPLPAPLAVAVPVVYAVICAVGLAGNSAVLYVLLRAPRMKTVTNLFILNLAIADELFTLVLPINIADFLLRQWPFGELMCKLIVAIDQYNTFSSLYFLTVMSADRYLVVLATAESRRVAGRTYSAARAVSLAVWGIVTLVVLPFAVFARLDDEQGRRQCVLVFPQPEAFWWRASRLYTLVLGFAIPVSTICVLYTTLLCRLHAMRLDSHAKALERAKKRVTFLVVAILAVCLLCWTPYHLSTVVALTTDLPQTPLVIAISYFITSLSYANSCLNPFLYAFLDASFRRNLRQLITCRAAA

T1 sequence (Q9Y570 whole entry): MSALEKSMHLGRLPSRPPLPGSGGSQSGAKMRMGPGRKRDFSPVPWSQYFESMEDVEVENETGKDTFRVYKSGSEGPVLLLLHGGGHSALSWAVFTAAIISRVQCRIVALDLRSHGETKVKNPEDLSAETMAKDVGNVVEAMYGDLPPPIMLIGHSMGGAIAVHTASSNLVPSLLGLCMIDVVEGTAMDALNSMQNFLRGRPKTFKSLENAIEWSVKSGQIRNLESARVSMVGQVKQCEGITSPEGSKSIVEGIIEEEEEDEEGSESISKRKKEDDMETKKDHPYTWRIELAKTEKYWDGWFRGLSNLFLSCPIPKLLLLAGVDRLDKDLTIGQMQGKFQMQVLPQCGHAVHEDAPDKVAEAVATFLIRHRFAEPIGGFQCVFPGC
T2 sequence (O95180 whole entry): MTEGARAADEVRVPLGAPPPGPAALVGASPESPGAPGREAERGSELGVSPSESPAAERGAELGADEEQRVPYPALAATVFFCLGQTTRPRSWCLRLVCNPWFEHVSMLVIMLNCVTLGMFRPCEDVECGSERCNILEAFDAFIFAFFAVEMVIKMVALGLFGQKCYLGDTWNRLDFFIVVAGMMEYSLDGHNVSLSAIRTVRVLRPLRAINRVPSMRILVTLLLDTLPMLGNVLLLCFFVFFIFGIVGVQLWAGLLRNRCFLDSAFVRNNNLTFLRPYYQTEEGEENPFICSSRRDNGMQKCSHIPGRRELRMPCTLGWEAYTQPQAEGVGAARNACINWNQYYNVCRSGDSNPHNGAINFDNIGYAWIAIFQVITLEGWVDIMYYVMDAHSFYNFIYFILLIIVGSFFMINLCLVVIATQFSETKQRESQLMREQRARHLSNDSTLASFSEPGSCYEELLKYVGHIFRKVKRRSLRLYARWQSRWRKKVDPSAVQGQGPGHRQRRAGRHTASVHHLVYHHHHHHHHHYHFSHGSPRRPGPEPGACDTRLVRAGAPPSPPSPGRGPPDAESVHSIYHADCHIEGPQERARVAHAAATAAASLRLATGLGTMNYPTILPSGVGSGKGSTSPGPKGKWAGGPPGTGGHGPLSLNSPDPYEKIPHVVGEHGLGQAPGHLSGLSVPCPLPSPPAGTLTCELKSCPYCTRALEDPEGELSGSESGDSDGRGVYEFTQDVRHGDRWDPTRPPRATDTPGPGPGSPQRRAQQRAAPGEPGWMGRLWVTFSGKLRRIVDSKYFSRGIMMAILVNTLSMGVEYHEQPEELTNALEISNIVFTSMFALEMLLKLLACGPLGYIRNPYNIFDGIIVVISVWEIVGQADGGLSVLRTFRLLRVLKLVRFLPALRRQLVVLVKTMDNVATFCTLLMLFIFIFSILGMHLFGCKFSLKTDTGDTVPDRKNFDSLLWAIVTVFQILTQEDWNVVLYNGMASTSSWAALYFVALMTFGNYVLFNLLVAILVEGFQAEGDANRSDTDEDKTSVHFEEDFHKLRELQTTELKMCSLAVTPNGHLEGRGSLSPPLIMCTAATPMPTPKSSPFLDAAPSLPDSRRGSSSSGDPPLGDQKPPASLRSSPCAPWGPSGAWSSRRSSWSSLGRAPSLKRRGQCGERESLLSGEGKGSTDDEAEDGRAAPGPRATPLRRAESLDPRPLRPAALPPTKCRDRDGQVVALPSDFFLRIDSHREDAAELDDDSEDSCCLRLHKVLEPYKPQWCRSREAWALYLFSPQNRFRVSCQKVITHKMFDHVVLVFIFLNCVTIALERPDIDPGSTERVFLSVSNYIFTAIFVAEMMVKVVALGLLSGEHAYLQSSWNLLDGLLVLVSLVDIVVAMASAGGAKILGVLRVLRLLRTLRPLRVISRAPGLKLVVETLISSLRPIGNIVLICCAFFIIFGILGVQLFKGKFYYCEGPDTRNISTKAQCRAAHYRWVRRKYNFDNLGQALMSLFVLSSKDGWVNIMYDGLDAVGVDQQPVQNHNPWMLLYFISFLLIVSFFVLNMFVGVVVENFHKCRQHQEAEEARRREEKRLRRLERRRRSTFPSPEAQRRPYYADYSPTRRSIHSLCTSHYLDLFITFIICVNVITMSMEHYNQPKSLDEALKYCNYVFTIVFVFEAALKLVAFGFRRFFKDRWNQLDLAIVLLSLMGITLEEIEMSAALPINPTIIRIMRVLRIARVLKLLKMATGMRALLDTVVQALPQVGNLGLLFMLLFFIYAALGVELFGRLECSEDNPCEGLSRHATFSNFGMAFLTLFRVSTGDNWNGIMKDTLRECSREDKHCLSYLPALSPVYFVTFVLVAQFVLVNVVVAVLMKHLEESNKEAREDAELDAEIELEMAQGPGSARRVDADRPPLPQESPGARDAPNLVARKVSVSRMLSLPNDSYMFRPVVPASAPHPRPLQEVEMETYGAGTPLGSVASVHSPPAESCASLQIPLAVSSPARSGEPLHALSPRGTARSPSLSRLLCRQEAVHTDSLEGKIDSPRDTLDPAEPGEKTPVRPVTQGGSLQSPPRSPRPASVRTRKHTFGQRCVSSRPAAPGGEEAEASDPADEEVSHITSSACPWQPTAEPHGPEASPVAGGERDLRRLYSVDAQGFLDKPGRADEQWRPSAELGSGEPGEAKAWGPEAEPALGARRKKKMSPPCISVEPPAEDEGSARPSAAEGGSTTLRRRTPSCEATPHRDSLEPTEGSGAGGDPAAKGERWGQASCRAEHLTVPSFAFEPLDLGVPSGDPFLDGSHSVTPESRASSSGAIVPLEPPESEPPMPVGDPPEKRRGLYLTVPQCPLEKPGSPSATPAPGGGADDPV
Sequence of Melanin-concentrating hormone receptor 1 (Q99705 whole entry): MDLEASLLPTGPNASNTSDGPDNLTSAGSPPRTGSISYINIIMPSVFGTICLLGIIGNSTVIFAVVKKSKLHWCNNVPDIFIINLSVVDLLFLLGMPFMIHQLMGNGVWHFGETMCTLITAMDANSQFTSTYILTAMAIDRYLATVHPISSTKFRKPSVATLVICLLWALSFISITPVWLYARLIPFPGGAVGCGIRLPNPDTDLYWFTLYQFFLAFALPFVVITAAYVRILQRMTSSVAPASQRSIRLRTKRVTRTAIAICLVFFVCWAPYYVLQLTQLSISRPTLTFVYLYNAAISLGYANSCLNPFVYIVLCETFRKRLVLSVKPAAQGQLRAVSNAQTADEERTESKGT
Sequence of FAD-linked sulfhydryl oxidase ALR (P55789 whole entry): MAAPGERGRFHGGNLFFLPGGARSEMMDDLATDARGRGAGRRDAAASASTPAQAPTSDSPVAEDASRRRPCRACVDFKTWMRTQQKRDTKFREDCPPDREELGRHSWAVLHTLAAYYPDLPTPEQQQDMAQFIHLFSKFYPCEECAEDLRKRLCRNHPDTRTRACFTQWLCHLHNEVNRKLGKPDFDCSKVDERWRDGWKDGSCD
Sequence of Envelope glycoprotein gp160 (Q6QLK5 whole entry, the tested form may be a part): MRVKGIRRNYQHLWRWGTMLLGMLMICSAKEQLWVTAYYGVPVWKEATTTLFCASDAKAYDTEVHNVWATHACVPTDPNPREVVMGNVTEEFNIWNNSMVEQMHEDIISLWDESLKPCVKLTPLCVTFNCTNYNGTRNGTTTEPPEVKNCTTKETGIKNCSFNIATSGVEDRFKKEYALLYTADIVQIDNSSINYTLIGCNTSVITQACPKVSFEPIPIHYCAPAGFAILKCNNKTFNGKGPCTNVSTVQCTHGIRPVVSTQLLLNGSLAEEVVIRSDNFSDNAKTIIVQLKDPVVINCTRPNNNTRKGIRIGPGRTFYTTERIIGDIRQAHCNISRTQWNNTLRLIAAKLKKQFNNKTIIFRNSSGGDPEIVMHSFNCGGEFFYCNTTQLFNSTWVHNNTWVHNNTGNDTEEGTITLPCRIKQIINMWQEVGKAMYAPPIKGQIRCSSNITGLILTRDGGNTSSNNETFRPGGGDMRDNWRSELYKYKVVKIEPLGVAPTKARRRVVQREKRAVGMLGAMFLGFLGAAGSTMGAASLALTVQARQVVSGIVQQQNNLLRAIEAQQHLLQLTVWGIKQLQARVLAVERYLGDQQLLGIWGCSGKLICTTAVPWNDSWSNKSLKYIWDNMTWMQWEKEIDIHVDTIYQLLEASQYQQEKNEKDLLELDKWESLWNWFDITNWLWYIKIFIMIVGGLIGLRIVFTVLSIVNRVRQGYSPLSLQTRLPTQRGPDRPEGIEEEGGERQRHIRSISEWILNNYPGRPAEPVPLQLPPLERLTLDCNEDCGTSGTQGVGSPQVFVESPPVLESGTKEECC

IC50 [1]: > 20 µM (inactive) | IC50 [2]: > 20 µM (not active)
Compound: CS(=O)(=O)/C(C#N)=C/c1ccc[nH]1

IC50 [13]: > 20 µM (inactive) | IC50 [14]: > 20 µM (inactive)
Compound: COC(=O)/C=C/c1cnn(-c2ccc(C(C)C)cc2)c(=O)c1Oc1ccc(OC)cc1

The remaining lines, values behind:

Compound: Clc1ccc(Cn2ncc3c(NCc4ccco4)ncnc32)c(Cl)c1
EC50 (BJ [3]): 9.56 µM (inconclusive) | EC50 (BJ [4]): > 150 µM (not active) | EC50 [5]: 9.5 µM (active) | EC50 [6]: 12.3 µM (inconclusive) | EC50 [7]: 1.99 µM (active) | EC50 (BJ [8]): > 150 µM (inconclusive)

Compound: NNc1nc(-c2ccccc2)cs1
AC50 (Salmon testes DNA): 58.7 µM (active) | AC50 [9]: 5.04 µM (active) | EC50 [10]: 4.06 µM (active) | EC50 [11]: 4.75 µM (active) | AC50 (HeLa): > 350 µM (inactive)

Compound: C/C(=C/CCC(C)C1CCC2(C)C3CCC4C(C)(C)C(=O)CCC4(C)C3=CCC12C)C(=O)O (stereo unspecified)
IC50 [12]: > 99 µM (inactive)
